Reference: patent US20120064056A1, “DICHLORACETATE IN COMBINATION WITH CLINICALLY HIGH LEVELS OF CARDIOPROTECTIVE OR HEMODYNAMIC DRUGS” (THE GOVERNORS OF THE UNIVERSITY OF ALBERTA TEC Edmonton, priority 2002, published 2012)

Key:
[1] = system: isolated rat hearts; experiment: Isolated working rat heart, aerobic perfusion: cardiac function and efficiency; design: Cardiac Work (CO · PSP): unit not given beside the values
Description: Rat hearts were cannulated for isolated working heart perfusions as described in “An imbalance between glycolysis and glucose oxidation is a possible explanation for the detrimental effects of high levels of fatty acids during aerobic reperfusion of ischemic hearts.”, (J Pharmacol Exp Ther. 264:135 (1993); herein incorporated by reference. In brief, male Sprague-Dawley rats (0.3-0.35 kg) were anesthetized with pentobarbital sodium (60 mg/kg IP) and hearts were quickly excised, the aorta was cannulated and a retrograde perfusion at 37° C. was initiated at a hydrostatic pressure of 60 mm Hg. Hearts were trimmed of excess tissue, and the pulmonary artery and the opening to the left atrium were then cannulated. After 15 min of Langendorff perfusion, hearts were switched to the working mode by clamping the aortic inflow line from the Langendorff reservoir and opening the left atrial inflow line. The perfusate was delivered from an oxygenator into the left atrium at a constant preload pressure of 11 mm Hg. Perfusate was ejected from spontaneously beating hearts into a compliance chamber (containing 1 ml of air) and into the aortic outflow line. The afterload was set at a hydrostatic pressure of 80 mm Hg. All working hearts were perfused with Krebs'-Henseleit solution containing calcium 2.5 mmol/L, glucose 5.5 mmol/L, 3% bovine serum albumin (Fraction V, Boehringer Mannheim), and with 1.2 mmol/L palmitate. Palmitate was bound to the albumin as described previously (Saddik M., et al. J Biol. Chem. 267:3825-3831 (1992)). The perfusate was recirculated, and pH was adjusted to 7.4 by bubbling with a mixture containing 95% O2 and 5% CO2. For the aerobic model hearts, all tested compounds were introduced into the heart 5 minutes into the working mode following Langendorff Perfusion.
Spontaneously beating hearts were used in all perfusions. Heart rate and aortic pressure were measured with a Biopac Systems Inc. blood pressure transducer connected to the aortic outflow line. Cardiac output and aortic flow were measured with Transonic T206 ultrasonic flow probes in the preload and afterload lines, respectively. Coronary flow was calculated as the difference between cardiac output and aortic flow. The O2 contents of the perfusate entering and leaving the heart were measured using YSI™ micro oxygen electrodes placed in the preload and pulmonary arterial lines, respectively. Myocardial O2 consumption (MVO2) was calculated according to the Fick principle, using coronary flow rates and the arteriovenous difference in perfusate O2 concentration. Cardiac work was calculated as the product of systolic pressure and cardiac output. Cardiac efficiency was defined as a ratio of cardiac work to MVO2.

[2] = system: isolated rat hearts subjected to global ischemia; experiment: Isolated working rat heart, global no flow ischemia and reperfusion: cardiac function and efficiency
Description: Hearts were trimmed of excess tissue, and the pulmonary artery and the opening to the left atrium were then cannulated. After 15 min of Langendorff perfusion, hearts were switched to the working mode by clamping the aortic inflow line from the Langendorff reservoir and opening the left atrial inflow line. The perfusate was delivered from an oxygenator into the left atrium at a constant preload pressure of 11 mm Hg. […] The afterload was set at a hydrostatic pressure of 80 mm Hg. […] Palmitate was bound to the albumin as described previously ([…]., et al. J Biol. Chem. 267:3825-3831 (1992)). […] For the aerobic model hearts, all tested compounds were introduced into the heart 5 minutes into the working mode following Langendorff Perfusion. Spontaneously beating hearts were used in all perfusions. Heart rate and aortic pressure were measured with a Biopac Systems Inc. blood pressure transducer connected to the aortic outflow line. Cardiac output and aortic flow were measured with Transonic […] ultrasonic flow probes in the preload and afterload lines, respectively. Coronary flow was calculated as the difference between cardiac output and aortic flow. […] Cardiac work was calculated as the product of systolic pressure and cardiac output. Cardiac efficiency was defined as a ratio of cardiac work to MVO2. […] All tested compounds were introduced into the perfusate five minutes prior to reperfusion.

[3] = aerobically perfused, DCA 2 mM, diltiazem 0.8 μM, digoxin 3 nM, metoprolol 1 μM, dobutamine 1 μM
[4] = post-ischemic reperfusion, DCA 2 mM, digoxin 3 nM, metoprolol 1 μM

## COCCc1ccc(OCC(O)CNC(C)C)cc1 (stereo not shown) [Metoprolol, metoprolol]
[1]; [3]
  Aortic Outflow: 35 ± 5 mL/min
  Cardiac Efficiency (CW · O2^−1): 1.85 ± 0.15
  Cardiac Output: 55 ± 8 mL/min
  Cardiac Work (CO · PSP): 71 ± 10
  Coronary Flow: 20 ± 3 mL/min
  HR × PSP: 32 ± 4 beats · min^−1 · mmHg · 10^−2
  Heart Rate: 250 ± 26 beats · min^−1
  O2 Consumption: 40 ± 9 μmolO2 · g dry wt^−1 · min^−1
  Peak Systolic Pressure: 130 ± 2 mmHg
[1]; normal hearts, aerobic, compared to control
  effect on functional parameters shown in Table 2 incl. O2 consumption and cardiac efficiency, in words: no significant effect
[1]; normal hearts, aerobic, compared to control (DCA and dobutamine: compared to dobutamine alone)
  effect on functional parameters shown in Table 1 (heart rate, peak systolic pressure, HR×PSP), in words: no significant effect
[2]; [4]
  Aortic Outflow: 11 ± 5 mL/min
  Cardiac Output: 24 ± 9 mL/min
  Coronary Flow: 13 ± 4 mL/min
  HR × PSP: 13 ± 6 beats · min^−1 · mmHg · 10^−2
  Heart Rate: 185 ± 40 beats · min^−1
  Peak Systolic Pressure: 73 ± 17 mmHg
[2]; reperfusion period
  functional parameters (cardiac function, cardiac efficiency) during the reperfusion period compared to control (Table 1, Table 2), in words: significantly improved
[2]; reperfusion period, FIG. 11, FIG. 17
  recovery of cardiac function of previously ischemic hearts compared to control, in words: does not change cardiac function
[2]; reperfusion period, FIG. 12, FIG. 18
  recovery of cardiac work of previously ischemic hearts compared to control, in words: significantly improve the recovery
[2]; reperfusion period, FIG. 13, FIG. 19
  recovery of oxygen consumption of previously ischemic hearts, in words: There does not appear to be significant differences
[2]; reperfusion period, FIG. 14, FIG. 20
  recovery of cardiac efficiency of previously ischemic hearts compared to control, in words: does not
